Key:
Assay in all cases: relative viability (nuclei count vs DMSO), 5 days (fraction); higher = more cells survive
[1] = compound: CC1=CC=C(C=C1)C(=O)CN2C3=C(CCCC3)SC2=N [Pifithrin_alpha] + C[C@]1(O)C[C@@H](c2nc(-c3ccc4ccc(-c5ccccc5)nc4c3)c3c(N)nccn32)C1 [Linsitinib] (partner 1 µM)
How it was run: (§1)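 A single step with final 0.05% Triton X-100, 1% formaldehyde and 1 ug/ml Hoechst fixed the cells and stained nuclei 5 days after treatment. Lung cancer cell lines in 1536-well plates had been treated by pin tool the day after seeding with one drug alone or a fixed anchor-drug dose plus five library-drug doses (not always all listed) in √10 steps, and nuclei were counted on 4× images. Relative viability is the ratio of nuclei in treated wells to nuclei in vehicle wells, taken as the median of duplicate plates.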

Axitinib + Decitabine = compound: CNC(=O)c1ccccc1Sc1ccc2c(/C=C/c3ccccn3)n[nH]c2c1 [Axitinib] + Nc1ncn([C@H]2C[C@H](O)[C@@H](CO)O2)c(=O)n1 [Decitabine] (partner 2 µM)
How it was run: as §1

Axitinib + Foretinib = compound: CNC(=O)c1ccccc1Sc1ccc2c(/C=C/c3ccccn3)n[nH]c2c1 [Axitinib] + COc1cc2c(Oc3ccc(NC(=O)C4(C(=O)Nc5ccc(F)cc5)CC4)cc3F)ccnc2cc1OCCCN1CCOCC1 [Foretinib] (partner 0.25 µM)
How it was run: as §1

Bemcentinib + Alpelisib = compound: Nc1nc(Nc2ccc3c(c2)CC[C@@H](N2CCCC2)CC3)nn1-c1cc2c(nn1)-c1ccccc1CCC2 [Bemcentinib] + Cc1nc(NC(=O)N2CCC[C@H]2C(N)=O)sc1-c1ccnc(C(C)(C)C(F)(F)F)c1 [Alpelisib] (partner 2 µM)
How it was run: as §1

| Cell Line | relative viability ([1]; first compound 1 µM) | relative viability ([1]; first compound 3.162 µM) | relative viability ([1]; first compound 10 µM) | relative viability ([1]; first compound 31.62 µM) | relative viability ([1]; first compound 100 µM) | relative viability (Axitinib + Decitabine; first compound 0.005 µM) | relative viability (Axitinib + Decitabine; first compound 0.01581 µM) | relative viability (Axitinib + Decitabine; first compound 0.05 µM) | relative viability (Axitinib + Decitabine; first compound 0.1581 µM) | relative viability (Axitinib + Decitabine; first compound 0.5 µM) | relative viability (Axitinib + Foretinib; first compound 0.005 µM) | relative viability (Axitinib + Foretinib; first compound 0.01581 µM) | relative viability (Axitinib + Foretinib; first compound 0.05 µM) | relative viability (Axitinib + Foretinib; first compound 0.1581 µM) | relative viability (Axitinib + Foretinib; first compound 0.5 µM) | relative viability (Bemcentinib + Alpelisib; first compound 0.04 µM) | relative viability (Bemcentinib + Alpelisib; first compound 0.1265 µM) | relative viability (Bemcentinib + Alpelisib; first compound 0.4 µM) | relative viability (Bemcentinib + Alpelisib; first compound 1.265 µM) | relative viability (Bemcentinib + Alpelisib; first compound 4 µM) |
| --- | --- | --- | --- | --- | --- | --- | --- | --- | --- | --- | --- | --- | --- | --- | --- | --- | --- | --- | --- | --- |
| EKVX | 1.05 | 0.644 | 0.705 | 0.615 | 0.739 | 0.366 | 0.315 | 0.344 | 0.334 | 0.396 | 0.861 | 0.786 | 0.349 | 0.778 | 0.824 | 0.913 | 1.01 | 0.929 | 0.973 | 0.972 |
| NCI-H1915 | 1.01 | 1.08 | 1.08 | – | 1.14 | 0.249 | 0.254 | 0.239 | 0.267 | 0.262 | 1.07 | 1.11 | 1.08 | 1.08 | 1.13 | 1.15 | 1.13 | 1.1 | 1.07 | 1.08 |
| NCI-H3122 | 1.07 | 1.06 | 1.03 | 0.879 | 1.08 | 0.42 | 0.445 | 0.448 | 0.451 | 0.51 | 0.928 | 0.847 | 1.02 | 1.01 | 0.951 | 0.447 | 0.825 | 0.829 | 0.819 | 0.82 |
| BEN | 0.991 | 1.11 | 1.01 | 0.929 | 1.29 | 0.795 | 0.758 | 0.771 | 0.782 | 0.635 | 0.662 | 0.514 | 0.643 | 0.852 | 0.573 | 0.984 | 1.09 | 1.11 | 1.12 | 1.02 |

Reference: the supplement of paper PMC10307832
